Test systems include KM12 colon; NCI-H226 lung; MALME-3M melanoma; HL-60(TB) leukemia; RPMI-8226 leukemia; SN12C renal; HCC-2998 colon; SNB-19 CNS; ACHN renal; T-47D breast.
Common to all, as to assay: NCI-60 cell line screen, 48 h

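Tested at 5 concentrations; 48 h exposure; 96-well plates; endpoints linearly interpolated, else capped at highest concentration. At the TGI there is no net growth.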

`CSc1cc(-c2ccccn2)nc(-c2ccccn2)c1`: the TGI is 14.4 µM in the experiment on KM12 colon; 0.955 µM in the experiment with NCI-H226 lung; 9.18 µM in the experiment with MALME-3M melanoma; 0.89 µM in the experiment with HL-60(TB) leukemia; greater than 100 µM in the experiment with RPMI-8226 leukemia; 13.4 µM in the experiment on SN12C renal. Moreover, the TGI in the experiment with HCC-2998 colon was 12.9 µM; with SNB-19 CNS it was greater than 50.5 µM; in the experiment on ACHN renal it was 0.977 µM; in the experiment with T-47D breast, 17.6 µM.

As to `COC1CC(OC2C(C)OC(OC3C(C)OC(OC4C(O)CC(O[C@H]5CC[C@@]6(C)C(=CC[C@]7(O)[C@@H]6C[C@@H](OC(C)=O)[C@@]6(C)[C@]7(O)CC[C@@]6(O)C(C)=O)C5)OC4C)CC3OC)CC2OC)OC(C)C1O` (stereo not given in full), the TGI in the experiment on KM12 colon, in the experiment with NCI-H226 lung, with MALME-3M melanoma, with HL-60(TB) leukemia, in the experiment on RPMI-8226 leukemia and in the experiment on SN12C renal was greater than 12.5 µM each time. For the same molecule, the TGI with HCC-2998 colon, in the experiment with SNB-19 CNS, in the experiment on ACHN renal and in the experiment with T-47D breast was greater than 12.5 µM in each case.

`COC(=O)C1=C(OC(=O)/C=C/c2ccccc2)C(C(=O)OC)[C@@]2(O)[C@@H](C(=O)OC)[C@H](C)C[C@@H]1[C@@H]2C(=O)OC` (stereo not given in full): the TGI in the experiment with KM12 colon was greater than 100 µM; in the experiment on NCI-H226 lung it was greater than 100 µM; in the experiment with MALME-3M melanoma, 65.5 µM; in the experiment on HL-60(TB) leukemia it was greater than 100 µM; with RPMI-8226 leukemia, greater than 100 µM; in the experiment on SN12C renal it was 41.7 µM. Also, the TGI in the experiment on HCC-2998 colon is 48.7 µM; in the experiment with SNB-19 CNS, greater than 100 µM; in the experiment with ACHN renal it was greater than 100 µM; with T-47D breast, 84.4 µM.

On to `COc1ccc(NC(=O)CC(=O)n2nc(C)c(N=Nc3cccc(C)c3)c2C)cc1`, for which the TGI in the experiment on KM12 colon, in the experiment on NCI-H226 lung, in the experiment on MALME-3M melanoma, in the experiment on HL-60(TB) leukemia, with RPMI-8226 leukemia and in the experiment on SN12C renal was greater than 100 µM each time. Further, the TGI in the experiment with HCC-2998 colon, in the experiment on SNB-19 CNS, in the experiment with ACHN renal and in the experiment with T-47D breast was greater than 100 µM each time.

Turning to `C(=N\Nc1ccc(-c2nc3ccccc3[nH]2)cc1)/c1c(-c2ccc(Cc3ccccc3)cc2)[nH]c2ccccc12`, the TGI with KM12 colon was greater than 41.3 µM; in the experiment with NCI-H226 lung, greater than 100 µM; with MALME-3M melanoma it was 23.2 µM; in the experiment with HL-60(TB) leukemia, greater than 63.5 µM; with RPMI-8226 leukemia, greater than 32.5 µM; with SN12C renal it was greater than 100 µM. Besides, the TGI with HCC-2998 colon is 30.9 µM; in the experiment with SNB-19 CNS it was greater than 77.3 µM; in the experiment on ACHN renal it was greater than 79.8 µM; in the experiment with T-47D breast, 98.4 µM.

For the molecule `C=C1C(=O)O[C@H]2[C@H]3O[C@@H](C[C@@H]12)[C@@]1(C)CC[C@H](O1)[C@H](C)CCC[C@H]3C`, the TGI is 4.05 µM in the experiment on KM12 colon; 3.87 µM in the experiment on NCI-H226 lung; 3.24 µM with MALME-3M melanoma; 1.27 µM with HL-60(TB) leukemia; 2.35 µM with RPMI-8226 leukemia; 6.61 µM in the experiment on SN12C renal. In addition, the TGI worked out at 2.57 µM with HCC-2998 colon, 21.7 µM in the experiment with SNB-19 CNS, 2.84 µM with ACHN renal and 5.53 µM with T-47D breast.

Regarding `CC(=O)OCc1cncn1S(=O)(=O)c1ccc(C)cc1`, the TGI in the experiment with KM12 colon was greater than 100 µM; with NCI-H226 lung, greater than 100 µM; in the experiment on MALME-3M melanoma, greater than 100 µM; in the experiment with HL-60(TB) leukemia, 50.2 µM; in the experiment on RPMI-8226 leukemia, greater than 100 µM; in the experiment on SN12C renal, greater than 100 µM. In addition, the TGI with HCC-2998 colon, in the experiment with SNB-19 CNS, with ACHN renal and with T-47D breast was greater than 100 µM each time.

For `CSCCCS/C1=C/CCCCCCCCCC1`, the TGI in the experiment on KM12 colon, in the experiment on NCI-H226 lung, in the experiment with MALME-3M melanoma, in the experiment on HL-60(TB) leukemia, with RPMI-8226 leukemia and in the experiment on SN12C renal was greater than 100 µM in each case. Moreover, the TGI in the experiment on HCC-2998 colon, with SNB-19 CNS, with ACHN renal and in the experiment with T-47D breast was greater than 100 µM each time.

Source of the values: PubChem BioAssay (NCI).
